Key:
[1] = target: T1, tyrosyl-DNA phosphodiesterase 1 (TDP1) (Homo sapiens, UniProt Q9NUW8); assay: Real-time fluorescent detection of TDP1 activity (BHQ1 cleavage from 3′-end of single-stranded FAM oligonucleotide); type: biochemical; details: recombinant TDP1 1.5 nM, 50 nM single-stranded oligonucleotide, 26 °C; mean ± SD, at least three replicates
T1 construct: made in house; host or cells: E. coli
Experimental: (§1) Recombinant human proteins tyrosyl-DNA phosphodiesterase 1 (TDP1) and tyrosyl-DNA phosphodiesterase 2 (TDP2) were expressed in the E. coli system, poly(ADP-ribose) polymerase 1 (PARP1) and poly(ADP-ribose) polymerase 2 (PARP2) were expressed in insect cells using a baculovirus expression system and purified as described in (Sukhanova et al., 2004; Sherstyuk et al., 2019; Dyrkheeva et al., 2020, 2021).
Determination of TDP1 activity. The reaction mixture (200 μl) for real-time fluorescent detection of TDP1 enzyme activity (Zakharenko et al., 2015) contained TDP1 reaction buffer (50 mM Tris-HCl, pH 8.0, 50 mM NaCl, and 7 mM β-mercaptoethanol), 50 nM oligonucleotide 5′-FAM-AAC GTC AGG GTC TTC C-BHQ1-3′, the test compound at various concentrations, and TDP1 at a final concentration of 1.5 nM. The reaction mixtures were incubated at a constant temperature of 26 °C in a POLARstar OPTIMA microplate fluorometer (BMG LABTECH, GmbH, Ortenberg, Germany). Fluorescence intensity (Ex485/Em520 nm) was measured every minute for 10 min. Mean values of half-maximal inhibitory concentration (IC50 – the concentration of the compound that inhibited 50 % of enzyme activity compared to the untreated control well containing only enzyme and substrate) were determined using a dose-response curve of the fluorescence signal level versus inhibitor concentration and calculated using MARS Data Analysis 2.0 (BMG LABTECH). Kinetic curves were obtained in at least three independent experiments and statistically processed in OriginPro 8.6.0 (OriginLab, Northampton, Massachusetts, USA).
The third group of compounds includes derivatives of the monomeric compound MB2Py(Ac), which is an isosteric analog of MB3, due to the fact that the pyrrolecarboxamide fragment contained in its structure can act as a hydrogen atom donor at the carboxamide nitrogen for hydrogen bond formation, in a position analogous to benzimidazole. Dimeric derivatives are represented by the DB2Py(n) series containing n-alkyldicarboxylic acids as a linker. This series is represented by a set of compounds containing 1, 3, 4, 5, 7, 9, and 11 methylene units, which allowed for a more accurate assessment of the dependence of the inhibitory activity of compounds on spacer length. The DB2Py(n) series differs from the DB3(n) series by the presence, in addition to the bisbenzimidazole structure, of a pyrrolecarboxamide structure, which is a fragment of the AT-specific antibiotic netropsin.Using the real-time fluorescence analysis method, halfmaximal inhibitory concentration (IC50) values of the studied compounds (see the Table) were obtained in the reaction of BHQ1 cleavage from the 3′-end of the oligonucleotide by TDP1, which led to an increase in FAM fluorescence at the 5′-end of the chain (Zakharenko et al., 2015). It should also be noted that a single-stranded oligonucleotide was used as substrate to exclude the binding of dimeric bisbenzimidazoles as minor-groove ligands to the DNA substrate and direct their action toward the enzymatic target.

[2] = target: T2, poly(ADP-ribose) polymerase 1 (PARP1) (Homo sapiens, UniProt P09874); assay: PARP1 auto-poly(ADP-ribosyl)ation with [32P]-NAD+; type: biochemical; details: compound 500 μM, PARP1 200 nM, 0.3 mM [32P]-NAD+, 2 min, 37 °C; mean ± SD; read-out: PARP1 % of residual activity (500 μM)
T2 construct: made in house; host or cells: insect cells (baculovirus expression system)
Excerpt: as §1
(§2) Determination of PARP1 and PARP2 activity. For determination of PARP1 and PARP2 enzyme activity in the presence and absence of test compounds, radiolabeled [32P]-NAD⁺ was synthesized from α-[32P]-ATP according to the protocol (Sherstyuk et al., 2019). The auto-poly(ADPribosyl) ation reaction was performed in buffer for PARP1: 50 mM Tris-HCl, pH 8.0, 10 mM MgCl2, 150 mM NaCl, and 7 mM β-mercaptoethanol, as well as 2 A260 units/ml activated DNA, 0.3 mM [32P]-NAD⁺ at 37 °C. The reaction was initiated by addition of PARP1 to 200 nM and carried out for 2 min
(§3) The buffer for PARP2 contained: 50 mM Tris-HCl, pH 8.0, 3 mM spermine, 150 mM NaCl, and 7 mM β-mercaptoethanol, 2 A260 units/ml activated DNA, 0.6 mM [32P]-NAD⁺ at 37 °C. The reaction was initiated by addition of PARP2 to 600 nM, and the reaction mixtures were incubated for 5 min. The reaction was stopped by placing 5 μl aliquots on Whatman 1 paper filters impregnated with 5 % trichloroacetic acid (TCA). The filters were washed with 5 % TCA four times and air-dried after removal of TCA with 90 % ethanol. The incorporation of the radioactive label into the reaction product was calculated using a Typhoon FLA 9500 scanner (GE Healthcare, Chicago, Illinois, USA). At least three independent experiments were performed.

[3] = tested on: poly(ADP-ribose) polymerase 2 (PARP2); assay: PARP2 auto-poly(ADP-ribosyl)ation with [32P]-NAD+; type: biochemical, human; details: compound 500 μM, PARP2 600 nM, 0.6 mM [32P]-NAD+, 5 min, 37 °C; mean ± SD
Excerpt: as §1, §2, §3

[4] = target: T3, tyrosyl-DNA phosphodiesterase 2 (TDP2) (Homo sapiens, UniProt O95551); assay: TDP2 activity, removal of 5′-tyrosine from oligonucleotide substrate, denaturing PAGE; type: biochemical; details: inhibitor 500 μM, TDP2 200 nM, substrate 100 nM, 10 min, 37 °C; mean ± SD; read-out: TDP2 % of residual activity (500 μM)
T3 construct: made in house; host or cells: E. coli
T3 sequence (O95551 1-362): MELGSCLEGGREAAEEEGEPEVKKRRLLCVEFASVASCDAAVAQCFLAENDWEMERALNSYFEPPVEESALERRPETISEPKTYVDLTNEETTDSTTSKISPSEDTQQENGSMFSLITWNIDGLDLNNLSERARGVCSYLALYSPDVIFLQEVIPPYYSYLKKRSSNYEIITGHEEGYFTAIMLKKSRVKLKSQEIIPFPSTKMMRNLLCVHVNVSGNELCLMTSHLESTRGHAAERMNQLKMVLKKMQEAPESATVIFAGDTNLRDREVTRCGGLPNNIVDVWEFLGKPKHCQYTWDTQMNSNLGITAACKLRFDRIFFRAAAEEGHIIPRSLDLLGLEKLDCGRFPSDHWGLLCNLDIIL
Excerpt: as §1
Determination of TDP2 activity. For determination of TDP2 enzyme activity, an oligonucleotide 5′-tyrosine-AAC GTC AGG GTC TTC C-FAM-3′ containing a 6-FAM label at the 3′-end and an L-tyrosine residue attached via the phenolic OH group to the 5′-terminal phosphate was used as substrate, synthesized at the Russian-French-Japanese Laboratory of Bionanotechnology of Novosibirsk State University as described in (Dyrkheeva et al., 2021). The substrate at a concentration of 100 nM was incubated with TDP2 at a concentration of 200 nM in the absence or presence of inhibitor (500 μM) for 10 min at 37 °C in buffer containing 50 mM Tris-HCl, pH 8.0, 50 mM NaCl, 7 mM β-mercaptoethanol (Dyrkheeva et al., 2021). The reaction was stopped by addition of PAGE loading buffer (TBE, 10 % formamide, 7 M urea, 20 mM EDTA, 0.1 % xylene cyanol, and 0.1 % bromophenol blue). The samples were then heated at 90 °C for 5 min. The enzymatic reaction products were separated by electrophoresis in 20 % denaturing PAGE with 7 M urea at an acrylamide to bisacrylamide ratio of 19:1. A high-resolution Typhoon FLA 9500 laser scanner (GE Healthcare, Chicago, Illinois, USA) was used for gel scanning and visualization, and the data were analyzed using QuantityOne 4.6.7 software (Bio- Rad Laboratories, Inc., Hercules, California, USA). At least three independent experiments were performed, and statistical processing was carried out using OriginPro 8.6.0 (OriginLab, Northampton, Massachusetts, USA).
To study the effect of the studied compounds on TDP2 activity, we tested the ability of this enzyme to remove the tyrosine residue from the 5′-end of the oligonucleotide substrate in the absence and presence of inhibitors, as described in (Dyrkheeva et al., 2021).

T2 sequence (P09874 whole entry): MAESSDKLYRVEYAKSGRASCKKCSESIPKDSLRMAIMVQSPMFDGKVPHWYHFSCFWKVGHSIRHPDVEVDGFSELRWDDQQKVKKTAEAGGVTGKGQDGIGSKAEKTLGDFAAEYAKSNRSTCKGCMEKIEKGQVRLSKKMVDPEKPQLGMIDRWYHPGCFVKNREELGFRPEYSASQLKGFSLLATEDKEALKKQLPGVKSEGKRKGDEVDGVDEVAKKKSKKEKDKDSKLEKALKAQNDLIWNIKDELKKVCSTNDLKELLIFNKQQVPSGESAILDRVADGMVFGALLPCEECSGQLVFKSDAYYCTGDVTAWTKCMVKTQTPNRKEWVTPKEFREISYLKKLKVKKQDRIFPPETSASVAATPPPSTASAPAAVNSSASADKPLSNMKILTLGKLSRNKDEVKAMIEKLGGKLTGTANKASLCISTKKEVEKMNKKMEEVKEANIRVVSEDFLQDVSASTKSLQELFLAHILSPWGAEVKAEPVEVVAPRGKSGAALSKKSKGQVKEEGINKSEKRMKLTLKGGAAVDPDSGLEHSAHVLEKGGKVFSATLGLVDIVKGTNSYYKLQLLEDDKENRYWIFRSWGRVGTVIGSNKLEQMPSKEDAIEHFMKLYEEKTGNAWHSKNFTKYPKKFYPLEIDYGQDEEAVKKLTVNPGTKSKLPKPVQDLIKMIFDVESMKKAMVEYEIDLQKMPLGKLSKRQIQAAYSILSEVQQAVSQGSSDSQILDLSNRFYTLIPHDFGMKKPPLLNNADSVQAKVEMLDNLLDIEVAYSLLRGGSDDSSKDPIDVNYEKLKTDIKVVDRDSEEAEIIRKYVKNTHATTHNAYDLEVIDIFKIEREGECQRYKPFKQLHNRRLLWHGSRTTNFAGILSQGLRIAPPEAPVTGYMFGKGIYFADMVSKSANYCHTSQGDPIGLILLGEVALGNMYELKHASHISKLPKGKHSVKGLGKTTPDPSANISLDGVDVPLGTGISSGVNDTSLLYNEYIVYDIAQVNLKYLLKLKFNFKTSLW
T1 sequence (Q9NUW8 whole entry): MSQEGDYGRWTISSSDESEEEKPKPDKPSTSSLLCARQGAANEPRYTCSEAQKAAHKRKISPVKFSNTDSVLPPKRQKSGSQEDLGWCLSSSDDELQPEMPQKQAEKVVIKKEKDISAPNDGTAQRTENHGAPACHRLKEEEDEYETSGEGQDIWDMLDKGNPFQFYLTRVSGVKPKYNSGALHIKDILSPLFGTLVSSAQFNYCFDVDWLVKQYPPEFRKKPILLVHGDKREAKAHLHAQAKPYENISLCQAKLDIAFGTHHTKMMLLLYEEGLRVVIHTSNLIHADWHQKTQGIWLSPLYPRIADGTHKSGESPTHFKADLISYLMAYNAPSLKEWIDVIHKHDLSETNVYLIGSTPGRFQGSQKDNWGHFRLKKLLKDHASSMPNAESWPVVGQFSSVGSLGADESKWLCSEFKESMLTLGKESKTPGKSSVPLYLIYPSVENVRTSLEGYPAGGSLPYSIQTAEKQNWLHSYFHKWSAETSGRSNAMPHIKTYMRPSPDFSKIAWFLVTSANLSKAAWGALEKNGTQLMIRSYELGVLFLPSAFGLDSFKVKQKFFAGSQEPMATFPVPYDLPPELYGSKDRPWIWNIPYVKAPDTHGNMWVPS

SMILES	IC50 [1] [nM]	remaining activity at 500 µM [2] [%]	PARP2 % of residual activity (500 μM) [3]	remaining activity at 500 µM [4] [%]
CN1CCN(c2ccc3nc(-c4ccc5nc(-c6ccc7nc(CNC(=O)CCCCCC(=O)NCc8nc9ccc(-c%10nc%11ccc(-c%12nc%13ccc(N%14CCN(C)CC%14)cc%13[nH]%12)cc%11[nH]%10)cc9[nH]8)[nH]c7c6)[nH]c5c4)[nH]c3c2)CC1 [DB3(5)]	> 50000	62 ± 16	~ 100%	65 ± 10
CN1CCN(c2ccc3nc(-c4ccc5nc(-c6ccc7nc(CNC(=O)CCCCCCCCCC(=O)NCc8nc9ccc(-c%10nc%11ccc(-c%12nc%13ccc(N%14CCN(C)CC%14)cc%13[nH]%12)cc%11[nH]%10)cc9[nH]8)[nH]c7c6)[nH]c5c4)[nH]c3c2)CC1 [DB3(9)]	> 50000	~100	~ 100%	~100
CN1CCN(c2ccc3nc(-c4ccc5nc(-c6ccc7nc(CNC(=O)CN8CCN(CC(=O)NCc9nc%10ccc(-c%11nc%12ccc(-c%13nc%14ccc(N%15CCN(C)CC%15)cc%14[nH]%13)cc%12[nH]%11)cc%10[nH]9)CC8)[nH]c7c6)[nH]c5c4)[nH]c3c2)CC1 [DB3P(1)]	100 ± 50	70 ± 12	~ 100%	~100
CN1CCN(c2ccc3nc(-c4ccc5nc(-c6ccc7nc(CNC(=O)CCN8CCN(CCC(=O)NCc9nc%10ccc(-c%11nc%12ccc(-c%13nc%14ccc(N%15CCN(C)CC%15)cc%14[nH]%13)cc%12[nH]%11)cc%10[nH]9)CC8)[nH]c7c6)[nH]c5c4)[nH]c3c2)CC1 [DB3P(2)]	110 ± 10	40 ± 5	~ 100%	~100
CN1CCN(c2ccc3nc(-c4ccc5nc(-c6ccc7nc(CNC(=O)CCCN8CCN(CCCC(=O)NCc9nc%10ccc(-c%11nc%12ccc(-c%13nc%14ccc(N%15CCN(C)CC%15)cc%14[nH]%13)cc%12[nH]%11)cc%10[nH]9)CC8)[nH]c7c6)[nH]c5c4)[nH]c3c2)CC1 [DB3P(3)]	200 ± 50	47 ± 14	~ 100%	~100
CN1CCN(c2ccc3nc(-c4ccc5nc(-c6ccc7nc(CNC(=O)CCCCN8CCN(CCCCC(=O)NCc9nc%10ccc(-c%11nc%12ccc(-c%13nc%14ccc(N%15CCN(C)CC%15)cc%14[nH]%13)cc%12[nH]%11)cc%10[nH]9)CC8)[nH]c7c6)[nH]c5c4)[nH]c3c2)CC1 [DB3P(4)]	150 ± 30	48 ± 15	~ 100%	~100
CC(=O)NCc1nc2ccc(-c3nc4ccc(N5CCN(C)CC5)cc4[nH]3)cc2[nH]1 [MB2(Ac)]	1500 ± 500	~100	~ 100%	~100
CCCn1cc(NC(C)=O)cc1-c1nc2ccc(-c3nc4ccc(N5CCN(C)CC5)cc4[nH]3)cc2[nH]1 [MB2Py(Ac)]	5000 ± 2000	~100	~ 100%	~100
CN1CCN(c2ccc3nc(-c4ccc5nc(CN)[nH]c5c4)[nH]c3c2)CC1 [MB2]	2000 ± 1000	~100	~ 100%	~100
CN1CCN(c2ccc3nc(-c4ccc5nc(-c6ccc7nc(CN)[nH]c7c6)[nH]c5c4)[nH]c3c2)CC1 [MB3]	700 ± 50	65 ± 15	~ 100%	~100
